Several values for one entry are separate records, joined by “and”; a condition that tells them apart may be missing. Equal values may be shown once. Toxic doses and inconclusive results are not listed. Rule as the data show it: active = T/C of 150% or more; inactive = T/C below 125%.
System: L1210 leukemia ip in BDF1 mice, survival T/C
Assay: NCI In Vivo Anticancer Drug Screen. Data for tumor model L1210 Leukemia (intraperitoneal) in B6D2F1 (BDF1) mice
Conditions: endpoint: mean survival time, higher = longer survival
Procedure, shortened: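 Each compound was tested against a transplantable tumor grown in mice. The endpoint was survival, with treated animals benchmarked against vehicle controls as a simple ratio.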

[1] = dose: 100.0 mg/kg/injection, schedule: Q01DX009 (ip), vehicle: Klucel (hydroxypropylcellulose) (HPC)
[2] = dose: 100.0 mg/kg/injection, schedule: Q04DX003 (ip), vehicle: Klucel (hydroxypropylcellulose) (HPC)
[3] = dose: 200.0 mg/kg/injection, schedule: Q01DX009 (ip), vehicle: Klucel (hydroxypropylcellulose) (HPC)
[4] = dose: 200.0 mg/kg/injection, schedule: Q04DX003 (ip), vehicle: Klucel (hydroxypropylcellulose) (HPC)
[5] = dose: 400.0 mg/kg/injection, schedule: Q04DX003 (ip), vehicle: Klucel (hydroxypropylcellulose) (HPC)
[6] = dose: 100.0 mg/kg/injection, schedule: Q01DX001 (ip), vehicle: saline
[7] = dose: 200.0 mg/kg/injection, schedule: Q01DX001 (ip), vehicle: saline
[8] = dose: 100.0 mg/kg/injection, schedule: Q01DX009 (ip), vehicle: saline with Tween-80
[9] = dose: 200.0 mg/kg/injection, schedule: Q01DX009 (ip), vehicle: saline with Tween-80
[10] = dose: 400.0 mg/kg/injection, schedule: Q04DX002 (ip), vehicle: saline with Tween-80
[11] = dose: 100.0 mg/kg/injection, schedule: Q04DX003 (ip), vehicle: saline with Tween-80

Measured: T/C

CCN(CC)c1cc(Cl)c(C=O)cc1[N+](=O)[O-]
inactive: [1] 100 % of control | [2] 94 % of control | [3] 107 % of control | [4] 96 % of control | dose: 400.0 mg/kg/injection, schedule: Q01DX009 (ip), vehicle: Klucel (hydroxypropylcellulose) (HPC) 102 % of control | [5] 102 % of control

CCNC(=O)CCl
inactive: [6] 96 % of control | [7] 104 % of control

CC1=C(C)C(=O)C(CC2=C(C)C(=O)C(C)=C(C)C2=O)=C(C)C1=O
inactive: dose: 100.0 mg/kg/injection, schedule: Q01DX005 (ip), vehicle: saline with Tween-80 101 % of control | [8] 96 % of control | dose: 200.0 mg/kg/injection, schedule: Q01DX005 (ip), vehicle: saline with Tween-80 96 % of control | [9] 100 % of control | dose: 400.0 mg/kg/injection, schedule: Q01DX005 (ip), vehicle: saline with Tween-80 104 % of control | dose: 400.0 mg/kg/injection, schedule: Q01DX009 (ip), vehicle: saline with Tween-80 96 % of control

CN(C(=O)N(C)S(=O)(=O)c1ccccc1)S(=O)(=O)c1ccccc1
inactive: dose: 75.0 mg/kg/injection, schedule: Q04DX003 (ip), vehicle: Klucel (hydroxypropylcellulose) (HPC) 100 % of control | dose: 150.0 mg/kg/injection, schedule: Q04DX003 (ip), vehicle: Klucel (hydroxypropylcellulose) (HPC) 101 % of control | dose: 300.0 mg/kg/injection, schedule: Q04DX003 (ip), vehicle: Klucel (hydroxypropylcellulose) (HPC) 94 % of control

O=C(Nc1ccc(Br)cc1)Nc1ccccc1Cl
inactive: dose: 100.0 mg/kg/injection, schedule: Q04DX002 (ip), vehicle: saline + alcohol 100 % of control | dose: 200.0 mg/kg/injection, schedule: Q04DX002 (ip), vehicle: saline + alcohol 94 % of control | dose: 400.0 mg/kg/injection, schedule: Q04DX002 (ip), vehicle: saline + alcohol 96 % of control

OC(/N=C/c1ccccc1)C(Cl)(Cl)Cl (stereo not drawn)
inactive: dose: 100.0 mg/kg/injection, schedule: Q04DX002 (ip), vehicle: Klucel (hydroxypropylcellulose) (HPC) 103 % of control | dose: 200.0 mg/kg/injection, schedule: Q04DX002 (ip), vehicle: Klucel (hydroxypropylcellulose) (HPC) 88 % of control | dose: 400.0 mg/kg/injection, schedule: Q04DX002 (ip), vehicle: Klucel (hydroxypropylcellulose) (HPC) 114 % of control

COC12C[C@]34CCCN3CC(O1)c1cc3c(cc1[C@@H]4[C@@H]2O)OCO3
inactive: dose: 25.0 mg/kg/injection, schedule: Q01DX009 (ip), vehicle: saline 105 % of control | dose: 50.0 mg/kg/injection, schedule: Q01DX009 (ip), vehicle: saline 112 % of control

CCOC(=O)CNC(=O)Oc1ccc2c(C)cc(=O)oc2c1
inactive: dose: 25.0 mg/kg/injection, schedule: Q01DX009 (ip), vehicle: carboxymethylcellulose (CMC) 100 % of control and 106 % of control | dose: 50.0 mg/kg/injection, schedule: Q01DX009 (ip), vehicle: carboxymethylcellulose (CMC) 98 % of control and 100 % of control | dose: 100.0 mg/kg/injection, schedule: Q01DX009 (ip), vehicle: carboxymethylcellulose (CMC) 93 % of control and 97 % of control | dose: 100.0 mg/kg/injection, schedule: Q04DX002 (ip), vehicle: carboxymethylcellulose (CMC) 98 % of control and 102 % of control | dose: 100.0 mg/kg/injection, schedule: Q04DX003 (ip), vehicle: carboxymethylcellulose (CMC) 92 % of control and 90 % of control | dose: 200.0 mg/kg/injection, schedule: Q01DX009 (ip), vehicle: carboxymethylcellulose (CMC) 100 % of control | dose: 200.0 mg/kg/injection, schedule: Q04DX002 (ip), vehicle: carboxymethylcellulose (CMC) 93 % of control and 97 % of control | dose: 200.0 mg/kg/injection, schedule: Q04DX003 (ip), vehicle: carboxymethylcellulose (CMC) 92 % of control and 87 % of control | dose: 400.0 mg/kg/injection, schedule: Q04DX002 (ip), vehicle: carboxymethylcellulose (CMC) 104 % of control and 105 % of control | dose: 400.0 mg/kg/injection, schedule: Q04DX003 (ip), vehicle: carboxymethylcellulose (CMC) 94 % of control and 101 % of control

CCCCNC(=S)SCCC(=O)O
inactive: dose: 100.0 mg/kg/injection, schedule: Q04DX002 (ip), vehicle: saline with Tween-80 100 % of control | dose: 200.0 mg/kg/injection, schedule: Q04DX002 (ip), vehicle: saline with Tween-80 104 % of control | [10] 102 % of control

Oc1c(Cl)cc(C(c2cc(Cl)c(O)c(Cl)c2)c2ccccn2)cc1Cl
inactive: [2] 100 % of control | [4] 104 % of control | [5] 93 % of control

C[N+](C)(CC(=O)Nc1ccc(Cl)cc1)Cc1ccc2c(c1)CCCC2
inactive: dose: 6.25 mg/kg/injection, schedule: Q04DX002 (ip), vehicle: saline with Tween-80 90 % of control | dose: 12.5 mg/kg/injection, schedule: Q04DX002 (ip), vehicle: saline with Tween-80 90 % of control | dose: 25.0 mg/kg/injection, schedule: Q04DX002 (ip), vehicle: saline with Tween-80 90 % of control and 91 % of control

CC1CCc2nc(C#N)c(N)nc2C1 (stereo not drawn)
inactive: dose: 50.0 mg/kg/injection, schedule: Q01DX009 (ip), vehicle: Klucel (hydroxypropylcellulose) (HPC) 103 % of control | [1] 97 % of control | [3] 106 % of control

CC(=O)OCC1OC2OC(c3ccccc3)=NC2C(OC(C)=O)C1OC(C)=O (stereo not drawn)
inactive: dose: 22.5 mg/kg/injection, schedule: Q01DX001 (ip), vehicle: carboxymethylcellulose (CMC) 97 % of control | dose: 45.0 mg/kg/injection, schedule: Q01DX001 (ip), vehicle: carboxymethylcellulose (CMC) 103 % of control | dose: 90.0 mg/kg/injection, schedule: Q01DX001 (ip), vehicle: carboxymethylcellulose (CMC) 105 % of control | dose: 180.0 mg/kg/injection, schedule: Q01DX001 (ip), vehicle: carboxymethylcellulose (CMC) 97 % of control

CCCCC(CC)COc1nc(OCC(CC)CCCC)nc(OCC(CC)CCCC)n1 (stereo not drawn)
inactive: dose: 25.6 mg/kg/injection, schedule: Q04DX002 (ip), vehicle: saline with Tween-80 91 % of control | dose: 64.0 mg/kg/injection, schedule: Q04DX002 (ip), vehicle: saline with Tween-80 91 % of control | [11] 88 % of control | dose: 160.0 mg/kg/injection, schedule: Q04DX002 (ip), vehicle: saline with Tween-80 91 % of control | dose: 200.0 mg/kg/injection, schedule: Q04DX003 (ip), vehicle: saline with Tween-80 92 % of control | [10] 87 % of control | dose: 400.0 mg/kg/injection, schedule: Q04DX003 (ip), vehicle: saline with Tween-80 87 % of control

CC[N+](C)(CC)CCCNC(=O)C(c1ccccc1)c1ccccc1
inactive: [11] 100 % of control

CCCCOCCOCCOC(OCCOCCOCCCC)c1ccc2c(c1)OCO2
inactive: dose: 100.0 mg/kg/injection, schedule: Q04DX002 (ip), vehicle: saline 88 % of control | dose: 200.0 mg/kg/injection, schedule: Q04DX002 (ip), vehicle: saline 92 % of control | dose: 400.0 mg/kg/injection, schedule: Q04DX002 (ip), vehicle: saline 95 % of control

COC(=O)/C=C(/Nc1cccc2ccccc12)C(=O)OC
inactive: dose: 50.0 mg/kg/injection, schedule: Q01DX001 (ip), vehicle: Klucel (hydroxypropylcellulose) (HPC) 102 % of control | dose: 100.0 mg/kg/injection, schedule: Q01DX001 (ip), vehicle: Klucel (hydroxypropylcellulose) (HPC) 96 % of control | dose: 200.0 mg/kg/injection, schedule: Q01DX001 (ip), vehicle: Klucel (hydroxypropylcellulose) (HPC) 114 % of control

CCC(Cl)C(=O)Nc1ccccc1 (stereo not drawn)
inactive: dose: 50.0 mg/kg/injection, schedule: Q01DX001 (ip), vehicle: saline 96 % of control | [6] 108 % of control | [7] 102 % of control | dose: 400.0 mg/kg/injection, schedule: Q01DX001 (ip), vehicle: saline 104 % of control

CCCCOc1c(Cl)c(Cl)c(OP(=O)(OCCCC)OCCCC)c(Cl)c1Cl
inactive: dose: 100.0 mg/kg/injection, schedule: Q04DX002 (ip), vehicle: other 103 % of control | dose: 200.0 mg/kg/injection, schedule: Q04DX002 (ip), vehicle: other 88 % of control | dose: 400.0 mg/kg/injection, schedule: Q04DX002 (ip), vehicle: other 103 % of control

CC(C)=CC[N+]12CN3CN(CN(C3)C1)C2
inactive: dose: 100.0 mg/kg/injection, schedule: Q04DX003 (ip), vehicle: saline 97 % of control | dose: 200.0 mg/kg/injection, schedule: Q04DX003 (ip), vehicle: saline 103 % of control | dose: 400.0 mg/kg/injection, schedule: Q04DX003 (ip), vehicle: saline 110 % of control

CC(=O)COCC1CO1 (stereo not drawn)
inactive: dose: 50.0 mg/kg/injection, schedule: Q01DX009 (ip), vehicle: saline with Tween-80 92 % of control | [8] 92 % of control | [9] 100 % of control
